Results published in ChEMBL document CHEMBL1201862, “PubChem BioAssay data set” (2004).
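48-hour exposure; five concentrations; linearly interpolated endpoints. At the GI50, growth is halved.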 Active and inactive are the calls of the source. Cut-off read from the data, not from the text of the source: active = GI50 up to about 1.1 µM and inactive = higher.

What was measured:
Experiment in all cases: DTP human tumour cell line panel, 48 h
[1] = system: A549
[2] = system: HCC 2998
[3] = system: HL-60
[4] = system: K562
[5] = system: MOLT-4
[6] = system: NCI-H23
[7] = system: OVCAR-3
[8] = system: RPMI-8226
[9] = system: SF-268
[10] = system: SF-539
[11] = system: SN12C
[12] = system: SNB-19
[13] = system: SNB-75
[14] = system: SR
[15] = system: UACC-62
[16] = system: UO-31
[17] = system: LOX IMVI
[18] = system: M14
[19] = system: U-251
[20] = system: DU-145

Measured: GI50

Fc1ccccc1C1SCc2nc3ccccc3n21 (centres undefined)
inactive: [1] 36.5 µM | [2] 75.2 µM | [3] 11.9 µM | [4] 16.3 µM | [5] 30.4 µM | [6] 33.2 µM | [7] 38.4 µM | [8] 25.5 µM | [9] 69.8 µM | [10] > 100 µM | [11] 79.6 µM | [12] 86.7 µM | [13] 72.8 µM | [14] 38.1 µM | [15] 35 µM | [16] 24.8 µM

CC(=O)N1CCC2(c3ccccc3N(C(C)=O)C2c2ccc(O)cc2)C1C(=O)O (centres undefined)
inactive: [1] > 100 µM | [2] > 100 µM | [3] > 100 µM | [4] > 100 µM | [17] > 100 µM | [18] > 100 µM | [5] > 100 µM | [6] > 100 µM | [7] > 100 µM | [8] > 100 µM | [9] > 100 µM | [10] > 100 µM | [11] > 100 µM | [12] > 100 µM | [13] > 100 µM | [14] > 100 µM | [19] > 100 µM | [15] > 100 µM | [16] > 100 µM

CC1=CC=NN2C(=O)[C@H](C)C2C1 (some centres undefined)
inactive: [1] > 100 µM | [2] > 100 µM | [3] > 100 µM | [4] > 100 µM | [17] > 100 µM | [18] > 100 µM | [5] > 100 µM | [6] > 100 µM | [7] > 100 µM | [8] > 100 µM | [9] > 100 µM | [10] > 100 µM | [11] > 100 µM | [12] > 100 µM | [13] > 100 µM | [14] > 100 µM | [19] > 100 µM | [15] > 100 µM | [16] > 100 µM

N#CC1CC2(CCN1C(=O)c1ccccc1)OCCO2 (centres undefined)
inactive: [1] > 100 µM | [2] > 100 µM | [3] > 100 µM | [4] > 100 µM | [18] > 100 µM | [5] > 100 µM | [6] > 100 µM | [7] > 100 µM | [8] > 100 µM | [9] > 100 µM | [10] > 100 µM | [11] > 100 µM | [12] > 100 µM | [13] > 100 µM | [14] > 100 µM | [19] > 100 µM | [15] > 100 µM | [16] > 100 µM

CNC(=O)OCc1nc(SSc2nc(COC(=O)NC)c(COC(=O)NC)n2C)n(C)c1COC(=O)NC
inactive: [1] > 100 µM | [2] > 100 µM | [3] > 100 µM | [4] > 100 µM | [17] > 100 µM | [18] > 100 µM | [5] > 100 µM | [6] > 100 µM | [7] > 100 µM | [8] > 100 µM | [9] > 100 µM | [10] > 100 µM | [11] > 100 µM | [12] > 100 µM | [13] > 100 µM | [14] > 100 µM | [19] > 100 µM | [15] > 100 µM | [16] > 100 µM

CC(SC(=O)Nc1ccc(/N=N/c2ccccc2)cc1)C(=O)O (centres undefined)
inactive: [1] 56.4 µM | [2] > 100 µM | [3] 38.6 µM | [4] > 100 µM | [17] > 100 µM | [18] > 100 µM | [5] 34 µM | [6] > 100 µM | [7] > 100 µM | [8] > 100 µM | [9] 17.3 µM | [10] 88.5 µM | [11] > 100 µM | [12] > 100 µM | [13] 6.4 µM | [14] 49 µM | [19] > 100 µM | [15] 28.8 µM | [16] 68.7 µM

C/C(=N\NC(N)=S)c1ccc2c(c1)OCO2
inactive: [1] > 100 µM | [2] > 100 µM | [3] 21.2 µM | [4] > 100 µM | [17] > 100 µM | [18] > 100 µM | [5] > 100 µM | [6] > 100 µM | [7] > 100 µM | [8] > 100 µM | [9] > 100 µM | [10] > 100 µM | [11] > 100 µM | [12] > 100 µM | [13] > 100 µM | [14] > 100 µM | [19] > 100 µM | [15] > 100 µM | [16] 76.2 µM

N#COc1ccc(Oc2ccccc2)cc1
inactive: [1] 73.3 µM | [2] 55.5 µM | [3] 26.3 µM | [4] 48.4 µM | [17] 23.1 µM | [18] 58.7 µM | [5] 42.9 µM | [6] 39.4 µM | [7] > 100 µM | [8] 30.4 µM | [9] 75.2 µM | [10] 26.8 µM | [11] 62.4 µM | [12] > 100 µM | [13] 39.8 µM | [14] 24.3 µM | [19] 42.7 µM | [15] 31.5 µM | [16] 50.9 µM

O=C(c1c(O)cc(O)cc1O)C1Cc2ccccc21 (centres undefined)
inactive: [1] 91.6 µM | [2] > 100 µM | [3] 74 µM | [4] 68.1 µM | [17] > 100 µM | [18] > 100 µM | [5] > 100 µM | [8] 58.1 µM | [9] 53.1 µM | [10] 32.2 µM | [11] > 100 µM | [12] 64 µM | [13] 13.4 µM | [14] > 100 µM | [19] 47.2 µM | [15] > 100 µM | [16] 58.3 µM

CC1CCC2CC(=O)OC([C@@H]3C(=O)O[C@@H](C4=CCCC4)C4C(C)CCC43)C12 (some centres undefined)
inactive: [1] > 100 µM | [2] > 100 µM | [3] 23.1 µM | [4] 43.7 µM | [17] > 100 µM | [18] > 100 µM | [5] 36.2 µM | [6] > 100 µM | [7] 73.1 µM | [8] 37.2 µM | [9] > 100 µM | [10] > 100 µM | [11] > 100 µM | [12] > 100 µM | [13] > 100 µM | [14] 39 µM | [19] 48.6 µM | [15] > 100 µM | [16] > 100 µM

O=C(Cc1nc2ccccc2s1)Nc1ccc(Cl)cc1
inactive: [1] 97.9 µM | [2] > 100 µM | [3] > 100 µM | [4] 38.9 µM | [17] 60.8 µM | [18] 77.1 µM | [5] > 100 µM | [6] > 100 µM | [7] > 100 µM | [9] > 100 µM | [10] > 100 µM | [11] > 100 µM | [12] > 100 µM | [13] 91.6 µM | [14] > 100 µM | [19] > 100 µM | [15] 82.2 µM | [16] > 100 µM

Cn1c(=O)c2ccccc2c2ccccc21
inactive: [1] 53.8 µM | [20] 47.4 µM | [2] 56.8 µM | [17] 64.4 µM | [18] 49.7 µM | [6] 69.7 µM | [7] 52.7 µM | [8] 37.8 µM | [9] 40.6 µM | [10] 38 µM | [11] 49.2 µM | [12] 64 µM | [13] 44.9 µM | [19] 57.1 µM | [15] 39.8 µM | [16] 42.4 µM

CCCCCCCCCCCC(=O)C1=C(O)CC(O)CC1=O (centres undefined)
inactive: [1] 59.4 µM | [2] > 100 µM | [3] 23.1 µM | [4] 42.2 µM | [17] 54.6 µM | [18] > 100 µM | [5] 88.1 µM | [6] > 100 µM | [7] 82.6 µM | [8] 87.3 µM | [9] > 100 µM | [10] > 100 µM | [11] > 100 µM | [12] > 100 µM | [13] > 100 µM | [14] > 100 µM | [19] 91.8 µM | [15] 95.1 µM | [16] 64.4 µM

Nc1ncnc2sc(Nc3ccccc3)nc12
inactive: [1] > 100 µM | [2] > 100 µM | [3] 2.54 µM | [4] 22.6 µM | [17] 99.3 µM | [18] 92 µM | [5] > 100 µM | [6] 48.3 µM | [7] > 100 µM | [8] > 100 µM | [9] > 100 µM | [10] > 100 µM | [11] 80.4 µM | [12] > 100 µM | [13] 29.6 µM | [14] 38 µM | [19] 56.6 µM | [15] > 100 µM | [16] 45.8 µM

CC(=O)c1c2c(cc3c1CC1(C3)Cc3cc4c(c(C(C)=O)c3C1)CCC4)CCC2
inactive: [1] > 100 µM | [2] > 100 µM | [3] 19.3 µM | [4] 38 µM | [17] > 100 µM | [18] > 100 µM | [5] 73.1 µM | [6] > 100 µM | [7] > 100 µM | [9] > 100 µM | [10] > 100 µM | [11] > 100 µM | [12] > 100 µM | [13] 82.4 µM | [14] > 100 µM | [19] > 100 µM | [15] > 100 µM | [16] > 100 µM
